Consider 22 compounds from US20130029962A1, “Substituted Heteroaromatic Pyrazole-Containing Carboxamide and Urea Compounds as Vanilloid Receptor Ligands” (Gruenenthal GmbH, priority 2011, published 2013).

As usually defined, the Ki is a measure of affinity in units of concentration, obtained from inhibition or displacement.

In the first test the target is T1, vanilloid receptor 1 (VR1/TRPV1 receptor) (Homo sapiens, UniProt Q8NER1).
T1 construct: expressed in transfected cells; host or cells: CHO K1
T1 sequence (Q8NER1 whole entry): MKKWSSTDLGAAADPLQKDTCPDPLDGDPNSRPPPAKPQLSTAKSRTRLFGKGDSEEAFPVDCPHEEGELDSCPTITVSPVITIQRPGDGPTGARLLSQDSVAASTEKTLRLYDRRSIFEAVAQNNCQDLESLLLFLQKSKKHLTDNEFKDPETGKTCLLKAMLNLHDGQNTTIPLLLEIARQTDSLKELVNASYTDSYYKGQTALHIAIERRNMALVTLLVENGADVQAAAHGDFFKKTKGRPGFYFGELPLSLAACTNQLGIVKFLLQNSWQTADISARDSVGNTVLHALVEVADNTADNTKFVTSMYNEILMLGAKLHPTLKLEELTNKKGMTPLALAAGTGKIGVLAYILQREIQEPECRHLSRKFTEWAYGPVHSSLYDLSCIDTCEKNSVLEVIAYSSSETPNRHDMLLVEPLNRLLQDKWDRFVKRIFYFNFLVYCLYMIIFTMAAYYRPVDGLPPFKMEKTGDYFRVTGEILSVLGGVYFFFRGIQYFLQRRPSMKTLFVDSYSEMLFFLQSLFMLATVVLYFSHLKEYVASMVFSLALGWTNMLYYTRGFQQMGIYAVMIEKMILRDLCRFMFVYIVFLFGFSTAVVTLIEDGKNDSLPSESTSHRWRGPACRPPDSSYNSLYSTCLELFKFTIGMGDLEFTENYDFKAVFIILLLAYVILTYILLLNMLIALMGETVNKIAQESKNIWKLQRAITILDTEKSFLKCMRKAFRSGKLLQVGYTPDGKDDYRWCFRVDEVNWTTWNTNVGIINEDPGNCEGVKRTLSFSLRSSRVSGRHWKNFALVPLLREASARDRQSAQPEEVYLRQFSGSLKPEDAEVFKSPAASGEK
The experiment in a line: Functional testing on the vanilloid receptor 1 (VR1/TRPV1): FLIPR Ca2+ influx assay, displacement of capsaicin. Format: cell-based, human being. Further details: key to mode of action at VR1/TRPV1 (AG, pAG, NE), Cap: AG=agonist; NE=no effect; pAG=partial agonist. The settings on record: 5 μM compound; capsaicin (Cap); human being. On the procedure: Furthermore, preference may be given to compounds according to the invention that cause a 50 percent displacement of capsaicin, which is present at a concentration of 100 nM, in a FLIPR assay with CHO K1 cells which were transfected with the human VR1 gene at a concentration of less than 2,000 nM, preferably less than 1,000 nM, particularly preferably less than 300 nM, most particularly preferably less than 100 nM, even more preferably less than 75 nM, additionally preferably less than 50 nM, most preferably less than 10 nM.
In the process, the Ca^2+ influx is quantified in the FLIPR assay with the aid of a Ca^2+-sensitive dye (type Fluo-4, Molecular Probes Europe BV, Leiden, the Netherlands) in a fluorescent imaging plate reader (FLIPR, Molecular Devices, Sunnyvale, USA), as described hereinafter. […]
The number of cells in the suspension is set to 3×10^5 per mL and 150 μL of this suspension are in each case introduced into a recess in the cell culture plates coated as described hereinbefore. In the incubator the plates are left for two to three days at 37° C., 5% by volume of CO2 and 95% relative humidity. Subsequently, the cells are loaded with 2 μM of Fluo-4 and 0.01% by volume of Pluronic F127 (Molecular Probes Europe BV, Leiden, the Netherlands) in HBSS buffer (Hank's buffered saline solution, Gibco Invitrogen GmbH, Karlsruhe, Germany) for 30 min at 37° C., washed 3 times with HBSS buffer and after further incubation for 15 minutes at room temperature used for Ca^2+ measurement in a FLIPR assay. The Ca^2+-dependent fluorescence is in this case measured before and after the addition of substances (λex=488 nm, λem=540 nm). Quantification is carried out by measuring the highest fluorescence intensity (FC, fluorescence counts) over time.
The FLIPR protocol consists of 2 substance additions. First the compounds to be tested (10 μM) are pipetted onto the cells and the Ca^2+ influx is compared with the control (capsaicin 10 μM). This provides the result in % activation based on the Ca^2+ signal after the addition of 10 μM of capsaicin (CP). After 5 minutes' incubation, 100 nM of capsaicin are applied and the Ca^2+ influx is also determined. Desensitising agonists and antagonists lead to suppression of the Ca^2+ influx. The % inhibition is calculated compared to the maximum achievable inhibition with 10 μM of capsazepine. Triple analyses (n=3) are carried out and repeated in at least 3 independent experiments (N=4).
Starting from the percentage displacement caused by different concentrations of the compounds to be tested of general formula I, IC50 inhibitory concentrations which cause a 50-percent displacement of capsaicin were calculated. Ki values for the test substances were obtained by conversion by means of the Cheng-Prusoff equation (Cheng, Prusoff; Biochem. Pharmacol. 22, 3099-3108, 1973).
The affinity of the compounds according to the invention for the vanilloid receptor 1 (VR1/TRPV1 receptor) was determined as described above (pharmacological method I).
For the compound `CC(C(=O)NCc1cc(C(F)(F)F)nn1-c1cccc(Cl)c1)c1ccc(C(=O)Nc2ccccc2)nc1` (centres unmarked) [Example 57], the “inhibition (as a percentage) at the concentration after @, Cap” value is recorded as 60%@5 μM.

Still in this test, the particulars now being: 5 μM compound; capsaicin (Cap); human being; read-out: inhibition (as a percentage) at the concentration after @, Cap.
Turning to `O=C(NCc1cc(C(F)(F)F)nn1-c1cccc(F)c1)Nc1ccc(CO)nc1` [Example 33, 1-((1-(3-fluorophenyl)-3-(trifluoromethyl)-1H-pyrazol-5-yl)methyl)-3-(6-(hydroxymethyl)pyridin-3-yl)urea], the inhibition at 5 µM amounted to 41%. The same measure, in the same setting: in the case of `COc1ccc(-n2nc(C(F)(F)F)cc2CNC(=O)Nc2ccc(CO)nc2)cc1C` [Example 37, 1-(6-(hydroxymethyl)pyridin-3-yl)-3-((1-(4-methoxy-3-methylphenyl)-3-(trifluoromethyl)-1H-pyrazol-5-yl)methyl)urea] it was 41%; in that of `O=C(NCc1cc(C(F)(F)F)nn1-c1cccc(Cl)c1)Nc1ccc(CCO)nc1` [Example 52, 1-((1-(3-chlorophenyl)-3-(trifluoromethyl)-1H-pyrazol-5-yl)methyl)-3-(6-(2-hydroxyethyl)pyridin-3-yl)urea], 45%; in that of `CC(C(=O)NCc1cc(C(C)(C)C)nn1-c1cccc(Cl)c1)c1ccc(C(N)=O)nc1` (centres unmarked) [Example 56, 5-(1-((3-tert-butyl-1-(3-chlorophenyl)-1H-pyrazol-5-yl)methylamino)-1-oxopropan-2-yl)picolinamide], 77%. Regarding `CC(C(=O)NCc1cc(C(F)(F)F)nn1-c1cccc(Cl)c1)c1ccc(C(=O)Nc2ccc(C(F)(F)F)cc2)nc1` (centres unmarked) [Example 59, 5-(1-((1-(3-chlorophenyl)-3-(trifluoromethyl)-1H-pyrazol-5-yl)methylamino)-1-oxopropan-2-yl)-N-(4-(trifluoromethyl)phenyl)picolinamide], the inhibition at 5 µM was determined as 24%.

For the compound `CC(C(=O)NCc1cc(C(F)(F)F)nn1-c1cccc(Cl)c1)c1cnc(C(=O)Nc2ccccc2)nc1` (centres unmarked) [Example 62, 5-(1-((1-(3-chlorophenyl)-3-(trifluoromethyl)-1H-pyrazol-5-yl)methylamino)-1-oxopropan-2-yl)-N-phenylpyrimidine-2-carboxamide], the inhibition at 5 µM was 53%.

The same test, now with this note: capsaicin (Cap) as stimulus; Ki from IC50 by Cheng-Prusoff; read-out: (f) Ki (human being) [nM] Cap.
On to `CC(C(=O)NCc1cc(C(F)(F)F)nn1-c1cccc(Cl)c1)c1ccc(CO)nc1` (centres unmarked) [Example 30, N-((1-(3-chlorophenyl)-3-(trifluoromethyl)-1H-pyrazol-5-yl)methyl)-2-(6-(hydroxymethyl)pyridin-3-yl)propanamide], for which the Ki was determined as 1 nM.

In the case of `O=C(NCc1cc(C(F)(F)F)nn1-c1cccc(Cl)c1)Nc1ccc(CO)nc1` [Example 32, 1-((1-(3-chlorophenyl)-3-(trifluoromethyl)-1H-pyrazol-5-yl)methyl)-3-(6-(hydroxymethyl)pyridin-3-yl)urea], the Ki is 32 nM.

In the case of `Cc1cccc(-n2nc(C(F)(F)F)cc2CNC(=O)Nc2ccc(CO)nc2)c1` [Example 36, 1-(6-(hydroxymethyl)pyridin-3-yl)-3-((1-m-tolyl-3-(trifluoromethyl)-1H-pyrazol-5-yl)methyl)urea], the Ki stood at 101 nM. With `O=C(NCc1cc(C(F)(F)F)nn1-c1cccc(Cl)c1)Nc1cnc(CO)c(F)c1` [Example 50, 1-((1-(3-chlorophenyl)-3-(trifluoromethyl)-1H-pyrazol-5-yl)methyl)-3-(5-fluoro-6-(hydroxymethyl)pyridin-3-yl)urea], the Ki was determined as 24 nM.

As to `CC(C(=O)NCc1cc(C(F)(F)F)nn1-c1cccc(Cl)c1)c1ccc(CCO)nc1` (centres unmarked) [Example 51, N-((1-(3-chlorophenyl)-3-(trifluoromethyl)-1H-pyrazol-5-yl)methyl)-2-(6-(2-hydroxyethyl)pyridin-3-yl)propanamide], the Ki stood at 8 nM.

As for `CC(C(=O)NCc1cc(C(F)(F)F)nn1-c1cccc(Cl)c1)c1ccc(COCCO)nc1` (centres unmarked) [Example 53, N-((1-(3-chlorophenyl)-3-(trifluoromethyl)-1H-pyrazol-5-yl)methyl)-2-(6-((2-hydroxyethoxy)methyl)pyridin-3-yl)propanamide], the Ki came to 44 nM. On the same count and under the same terms, in the case of `CC(C(=O)NCc1cc(C(F)(F)F)nn1-c1cccc(Cl)c1)c1ccc(C(N)=O)nc1` (centres unmarked) [Example 55, 5-(1-((1-(3-chlorophenyl)-3-(trifluoromethyl)-1H-pyrazol-5-yl)methylamino)-1-oxopropan-2-yl)picolinamide] it was 23 nM; in that of `CC(C(=O)NCc1cc(C(F)(F)F)nn1-c1cccc(Cl)c1)c1ccc(C(=O)Nc2ccc(F)cc2)nc1` (centres unmarked) [Example 58, 5-(1-((1-(3-chlorophenyl)-3-(trifluoromethyl)-1H-pyrazol-5-yl)methylamino)-1-oxopropan-2-yl)-N-(4-fluorophenyl)picolinamide], 5 nM; in that of `CC(C(=O)NCc1cc(C(C)(C)C)nn1-c1cccc(Cl)c1)c1ccc(C(=O)Nc2ccc(F)cc2)nc1` (centres unmarked) [Example 60, 5-(1-((3-tert-butyl-1-(3-chlorophenyl)-1H-pyrazol-5-yl)methylamino)-1-oxopropan-2-yl)-N-(4-fluorophenyl)picolinamide], 4 nM.

In the case of `CC(C(=O)NCc1cc(C(C)(C)C)nn1-c1cccc(Cl)c1)c1ccc(C(=O)Nc2ccc(C(F)(F)F)cc2)nc1` (centres unmarked) [Example 61, 5-(1-((3-tert-butyl-1-(3-chlorophenyl)-1H-pyrazol-5-yl)methylamino)-1-oxopropan-2-yl)-N-(4-(trifluoromethyl)phenyl)picolinamide], the Ki came to 45 nM. On to `CC(C(=O)NCc1cc(C(F)(F)F)nn1-c1cccc(Cl)c1)c1cnc(C(=O)Nc2ccc(F)cc2)nc1` (centres unmarked) [Example 63, 5-(1-((1-(3-chlorophenyl)-3-(trifluoromethyl)-1H-pyrazol-5-yl)methylamino)-1-oxopropan-2-yl)-N-(4-fluorophenyl)pyrimidine-2-carboxamide], for which the Ki was 6 nM. In the case of `CC(C(=O)NCc1cc(C(F)(F)F)nn1-c1cccc(Cl)c1)c1cnc(C(=O)Nc2ccc(C(F)(F)F)cc2)nc1` (centres unmarked) [Example 64, 5-(1-((1-(3-chlorophenyl)-3-(trifluoromethyl)-1H-pyrazol-5-yl)methylamino)-1-oxopropan-2-yl)-N-(4-(trifluoromethyl)phenyl)pyrimidine-2-carboxamide], the Ki amounted to 61 nM.

Turning to `CC(C(=O)NCc1cc(C(C)(C)C)nn1-c1cccc(Cl)c1)c1cnc(C(=O)Nc2ccccc2)nc1` (centres unmarked) [Example 65, 5-(1-((3-tert-butyl-1-(3-chlorophenyl)-1H-pyrazol-5-yl)methylamino)-1-oxopropan-2-yl)-N-phenylpyrimidine-2-carboxamide], the Ki came to 70 nM.

Still in this test, the particulars now being: capsaicin (Cap); human being.
For the compound `COc1ccc(-n2nc(C(F)(F)F)cc2CNC(=O)Nc2ccc(CO)nc2)cc1F` [Example 35, 1-((1-(3-fluoro-4-methoxyphenyl)-3-(trifluoromethyl)-1H-pyrazol-5-yl)methyl)-3-(6-(hydroxymethyl)pyridin-3-yl)urea], the “mode of action at VR1/TRPV1 (AG, pAG, NE), Cap” value (“mode of action at VR1/TRPV1” below) is “NE”. In the case of `O=C(NCc1cc(C(F)(F)F)nn1-c1cccc(F)c1)Nc1ccc(C2CCOCC2)nc1` [Example 54, 1-((1-(3-fluorophenyl)-3-(trifluoromethyl)-1H-pyrazol-5-yl)methyl)-3-(6-(tetrahydro-2H-pyran-4-yl)pyridin-3-yl)urea], the “mode of action at VR1/TRPV1” value is listed as “NE”. With `CC(C(=O)NCc1cc(C(C)(C)C)nn1-c1cccc(Cl)c1)c1ccc(C(N)=O)nc1` (centres unmarked) [Example 56, 5-(1-((3-tert-butyl-1-(3-chlorophenyl)-1H-pyrazol-5-yl)methylamino)-1-oxopropan-2-yl)picolinamide], the “mode of action at VR1/TRPV1” value is given as “AG”.
